What was measured:
[1] = Dry Sympatec PSD analysis (particle size distribution); assay type: physicochemical; conditions: pre-storage
[2] = Effect of humidity on prolonged storage (20% RH, 48 hours; DVS, DSC, TGA, PSD, SEM); assay type: physicochemical; conditions: 20% RH for 48 hours; for DSC trace, thermal behaviour of stored sample: post-humidity treatment
Description: In order to evaluate the effect of humidity on prolonged storage processed BDP hydrate was subjected to 20% relative humidity (RH) for 48 hours. The sample recovered after storage was analysed by DSC, TGA, PSD and SEM. In order to evaluate the effect of humidity on prolonged storage, processed BDP heptane was subjected to 20% relative humidity (RH) for 48 hours. The sample recovered after storage was analysed by DSC, TGA, PSD and SEM.

SMILES | Particle size distribution relative to the inhalation range [1] | DSC trace, thermal behaviour of stored sample [2] | Particle Size, cumulative distribution Q3 X10 ([2]; post-storage sample) [μ] | Particle Size, cumulative distribution Q3 X50 ([2]; post-storage sample) [μ] | Particle Size, cumulative distribution Q3 X90 ([2]; post-storage sample) [μ] | DVS mass plot, change of mass during storage [2] | Stability on prolonged storage compared with anhydrous BDP [2]
CCC(=O)OCC(=O)[C@@]1(OC(=O)CC)[C@@H](C)C[C@H]2[C@@H]3CCC4=CC(=O)C=C[C@]4(C)[C@@]3(Cl)[C@@H](O)C[C@@]21C.O [BDP heptane, beclomethasone diproprionate] | extremely promising and within the inhalation range | no variation in the thermal behaviour | 0.68 | 2.44 | 5.29 |  | 
CCC(=O)OCC(=O)[C@@]1(OC(=O)CC)[C@@H](C)C[C@H]2[C@@H]3CCC4=CC(=O)C=C[C@]4(C)[C@@]3(Cl)[C@@H](O)C[C@@]21C.O [BDP hydrate, beclomethasone diproprionate] | well within the inhalation range | no variation in the thermal behaviour |  | 1.37 | 2.95 | considerable weight loss due to partial dehydration | higher stability on prolonged storage than anhydrous BDP

From patent publication US20120135055A1, “Dry Powder Inhaler Formulations” (BREATH LIMITED, priority 2009, published 2012)
